# Reference: ChEMBL document CHEMBL1201862, “PubChem BioAssay data set” (2004)
# Calls of active or inactive are those of the source.
# Legend:
# Cytochrome P450 1A2 = biological target: T1, Cytochrome P450 1A2 (Homo sapiens, UniProt P05177);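 further: PubChem cytochrome P450 panel assay, CYP1A2 panel member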
# T1 sequence (P05177 whole entry): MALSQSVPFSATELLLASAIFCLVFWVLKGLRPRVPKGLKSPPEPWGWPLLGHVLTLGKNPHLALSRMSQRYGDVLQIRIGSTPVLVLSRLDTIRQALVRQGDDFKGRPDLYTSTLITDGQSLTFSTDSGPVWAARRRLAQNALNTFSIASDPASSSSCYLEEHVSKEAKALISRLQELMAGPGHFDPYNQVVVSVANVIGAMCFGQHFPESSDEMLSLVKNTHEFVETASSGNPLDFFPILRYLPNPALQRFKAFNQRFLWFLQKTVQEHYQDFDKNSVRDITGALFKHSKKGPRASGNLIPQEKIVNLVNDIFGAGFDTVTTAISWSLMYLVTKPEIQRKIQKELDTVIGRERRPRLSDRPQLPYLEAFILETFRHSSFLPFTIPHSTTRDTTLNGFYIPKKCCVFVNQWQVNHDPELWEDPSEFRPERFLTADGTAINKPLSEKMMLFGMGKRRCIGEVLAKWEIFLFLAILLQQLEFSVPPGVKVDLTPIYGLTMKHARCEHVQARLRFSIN
# [1] = biological target: T2, Apoptotic protease-activating factor 1 (Homo sapiens, UniProt O14727); assay type: functional
# T2 sequence (O14727 whole entry): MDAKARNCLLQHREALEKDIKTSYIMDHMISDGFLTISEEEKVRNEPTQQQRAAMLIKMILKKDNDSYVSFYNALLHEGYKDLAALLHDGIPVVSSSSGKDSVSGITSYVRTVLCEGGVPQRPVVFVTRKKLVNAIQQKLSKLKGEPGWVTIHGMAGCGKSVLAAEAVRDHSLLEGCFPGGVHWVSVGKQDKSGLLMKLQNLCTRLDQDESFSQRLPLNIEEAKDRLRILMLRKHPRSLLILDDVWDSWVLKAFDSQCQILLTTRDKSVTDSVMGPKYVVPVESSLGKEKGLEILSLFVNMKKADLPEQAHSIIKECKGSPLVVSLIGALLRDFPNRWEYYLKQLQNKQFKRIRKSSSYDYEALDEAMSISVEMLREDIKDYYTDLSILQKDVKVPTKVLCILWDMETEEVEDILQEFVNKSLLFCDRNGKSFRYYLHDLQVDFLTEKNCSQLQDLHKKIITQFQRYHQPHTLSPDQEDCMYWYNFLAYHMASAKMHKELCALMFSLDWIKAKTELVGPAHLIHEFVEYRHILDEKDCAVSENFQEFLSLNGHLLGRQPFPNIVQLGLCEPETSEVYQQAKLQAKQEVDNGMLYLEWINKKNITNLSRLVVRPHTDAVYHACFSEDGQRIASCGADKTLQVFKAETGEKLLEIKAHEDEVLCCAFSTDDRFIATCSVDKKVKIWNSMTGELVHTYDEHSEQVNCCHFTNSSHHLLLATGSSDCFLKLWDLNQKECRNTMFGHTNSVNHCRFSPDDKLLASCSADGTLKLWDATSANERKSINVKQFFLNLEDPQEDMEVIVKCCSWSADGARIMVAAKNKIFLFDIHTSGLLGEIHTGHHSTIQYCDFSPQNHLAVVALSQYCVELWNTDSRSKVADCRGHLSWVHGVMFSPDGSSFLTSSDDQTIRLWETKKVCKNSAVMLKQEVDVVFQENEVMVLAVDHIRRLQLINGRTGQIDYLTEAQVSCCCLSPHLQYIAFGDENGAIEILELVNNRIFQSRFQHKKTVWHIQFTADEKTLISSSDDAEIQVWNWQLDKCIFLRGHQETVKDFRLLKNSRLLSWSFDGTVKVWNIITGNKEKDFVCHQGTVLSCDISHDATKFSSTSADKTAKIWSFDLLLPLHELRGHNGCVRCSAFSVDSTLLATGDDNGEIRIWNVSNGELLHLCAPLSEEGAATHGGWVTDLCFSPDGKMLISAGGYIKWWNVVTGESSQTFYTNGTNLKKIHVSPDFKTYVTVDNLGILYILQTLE
# Cytochrome P450 3A4 [2] = biological target: T3, Cytochrome P450 3A4 (Homo sapiens, UniProt P08684)
# Estrogen receptor beta = Estrogen receptor beta (Homo sapiens, UniProt Q92731);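 further: recombinant ER-beta bound to coactivator SRC1 peptide in presence of estradiol agonist; inhibitors block coactivator peptide binding and lower the FRET signal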
# [3] = biological target: Glyceraldehyde-3-phosphate dehydrogenase (Homo sapiens, UniProt P04406)
# [4] = NIH3T3 cell viability loss – ATP luminescence, mouse fibroblasts, counter-screen, dose response (AID 2010); assay type: functional, cell-based;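 further: cells exposed to compound for about 90 hours before reading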
# [5] = Trypanosoma cruzi growth suppression in host cells – NIH3T3 host cells, beta-gal luminescence, confirmation (AID 2044); assay type: functional, cell-based;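 further: intracellular parasites grown in NIH/3T3 mouse fibroblasts as host cells; luminescent beta-galactosidase reporter signal from transgenic T. cruzi replicating inside host cells; inhibitors lower the luminescence signal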
# [6] = biological target: Heat shock protein HSP 90-alpha (Homo sapiens, UniProt P07900); assay type: functional, organism-based
# BJ [7] = assay: cells; assay type: functional, cell-based; conditions: Homo sapiens
# INS1 = assay: INS-1E survival protection against cytokine death – cell-based, luminescence, retest, dose response (AID 449756); assay type: functional; conditions: Rattus norvegicus;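 further: cell death triggered by IL-1 beta plus TNF-alpha plus IFN-gamma mixture; protective hits raise ATP signal compared with cytokine alone wells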
# Streptokinase A = biological target: T4, Streptokinase A (Streptococcus pyogenes serotype M1, UniProt P10520); assay: viability-normalized secreted streptokinase activity reduction – plasminogen activation absorbance, OD405, dose response (AID 1914); assay type: functional, Streptococcus pyogenes M1 GAS;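 further: secreted streptokinase activity via plasminogen activation per viability signal from cell pellet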
# T4 sequence (P10520 whole entry): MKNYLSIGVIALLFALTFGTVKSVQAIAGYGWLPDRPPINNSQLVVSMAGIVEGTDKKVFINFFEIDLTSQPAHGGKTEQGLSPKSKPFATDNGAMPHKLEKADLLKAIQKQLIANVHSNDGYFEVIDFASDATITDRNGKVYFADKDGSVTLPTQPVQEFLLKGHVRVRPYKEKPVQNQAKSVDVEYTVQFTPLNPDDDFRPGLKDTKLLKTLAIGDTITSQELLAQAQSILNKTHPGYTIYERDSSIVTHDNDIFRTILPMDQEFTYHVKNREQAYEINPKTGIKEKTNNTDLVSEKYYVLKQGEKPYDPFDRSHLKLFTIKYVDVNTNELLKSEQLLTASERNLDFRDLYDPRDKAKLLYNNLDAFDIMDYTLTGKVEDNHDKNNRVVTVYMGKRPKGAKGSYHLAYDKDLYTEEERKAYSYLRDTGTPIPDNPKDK
# Streptococcus = assay: GAS UMAA2166 growth inhibition – luminescence, BacTiterGlo, counter-screen for streptokinase expression inhibitor project, dose response (AID 1915); assay type: functional, organism-based;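 further: potency for reduction of bacterial viability or growth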
# BJ [8] = assay: BJ-TERT fibroblast viability loss – cell-based, RAS-independent, luminescence, dose response (AID 1933); assay type: functional; conditions: Homo sapiens
# Large T antigen = Large T antigen (Simian virus 40, UniProt P03070); assay type: functional, Betapolyomavirus macacae;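 further: Confirmatory-stage PubChem screen for compounds that inhibit SV40 T antigen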
# [9] = NIH-3T3 fibroblast cytotoxicity, dose response, cytotoxicity control, cell-based, fluorescence, Alamar Blue, secondary assay (AID 2327); assay type: functional;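 further: NIH-3T3 mouse fibroblasts cultured with fluconazole at 8 µg/mL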
# [10] = test system: Streptococcus sp. 'group A'; assay: Streptococcus pyogenes SK(-)GAS viability under kanamycin – luminescence, BacTiterGlo, confirmation, counter-screen for streptokinase expression inhibitor project, dose response (AID 1900); assay type: functional, organism-based
# [11] = DRD fibroblast viability loss – cell-based, non-viral oncogenic, luminescence, dose response (AID 1934); assay type: functional; conditions: Homo sapiens
# Cytochrome P450 3A4 [12] = biological target: T3, Cytochrome P450 3A4; conditions: Potency
# [13] = biological target: T5, Histone-lysine N-methyltransferase NSD2 (Homo sapiens, UniProt O96028); assay type: biochemical
# T5 sequence (O96028 whole entry): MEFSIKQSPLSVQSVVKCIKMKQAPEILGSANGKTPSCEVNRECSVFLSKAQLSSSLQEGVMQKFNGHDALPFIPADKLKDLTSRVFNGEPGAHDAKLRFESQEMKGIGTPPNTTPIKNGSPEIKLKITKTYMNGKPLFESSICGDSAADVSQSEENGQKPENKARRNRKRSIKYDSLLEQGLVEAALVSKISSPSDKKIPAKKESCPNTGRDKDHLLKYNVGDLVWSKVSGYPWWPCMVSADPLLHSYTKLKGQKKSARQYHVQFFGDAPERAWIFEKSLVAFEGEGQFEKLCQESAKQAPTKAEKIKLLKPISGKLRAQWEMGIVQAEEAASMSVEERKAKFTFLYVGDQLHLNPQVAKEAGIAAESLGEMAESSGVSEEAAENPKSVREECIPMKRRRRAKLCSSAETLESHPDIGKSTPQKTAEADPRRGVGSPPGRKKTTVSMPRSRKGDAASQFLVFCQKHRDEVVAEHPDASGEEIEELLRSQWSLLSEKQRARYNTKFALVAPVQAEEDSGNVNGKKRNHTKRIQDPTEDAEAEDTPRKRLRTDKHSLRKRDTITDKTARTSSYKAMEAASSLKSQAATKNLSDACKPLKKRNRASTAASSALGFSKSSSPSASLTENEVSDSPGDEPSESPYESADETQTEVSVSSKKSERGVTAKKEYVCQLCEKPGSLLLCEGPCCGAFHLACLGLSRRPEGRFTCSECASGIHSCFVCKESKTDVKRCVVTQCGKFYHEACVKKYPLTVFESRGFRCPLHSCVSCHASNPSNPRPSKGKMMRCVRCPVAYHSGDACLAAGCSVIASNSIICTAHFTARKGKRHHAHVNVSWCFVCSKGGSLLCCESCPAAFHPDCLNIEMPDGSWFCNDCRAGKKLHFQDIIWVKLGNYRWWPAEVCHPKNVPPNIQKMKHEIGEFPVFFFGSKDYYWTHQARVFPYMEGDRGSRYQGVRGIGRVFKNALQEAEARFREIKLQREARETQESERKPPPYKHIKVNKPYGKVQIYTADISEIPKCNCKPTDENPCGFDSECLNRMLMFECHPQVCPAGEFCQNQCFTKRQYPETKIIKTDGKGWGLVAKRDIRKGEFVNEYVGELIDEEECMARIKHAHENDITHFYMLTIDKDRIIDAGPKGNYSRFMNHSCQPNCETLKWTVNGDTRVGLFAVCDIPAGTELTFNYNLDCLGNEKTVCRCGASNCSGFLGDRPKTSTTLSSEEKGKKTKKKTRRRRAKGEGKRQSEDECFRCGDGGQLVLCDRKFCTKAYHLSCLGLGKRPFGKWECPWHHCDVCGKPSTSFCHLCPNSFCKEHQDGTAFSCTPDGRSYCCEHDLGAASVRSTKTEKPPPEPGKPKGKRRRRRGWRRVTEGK
# [14] = biological target: FAD-linked sulfhydryl oxidase ALR (Homo sapiens, UniProt P55789); assay: ALR-catalysed DTT oxidation blockers – biochemical, H2O2 detection, luminescence, cherry-pick, dose response (AID 493248)
# Genome polyprotein = Genome polyprotein (dengue virus type 2, UniProt P29990); assay: flavivirus cap methylation enzyme inhibition – biochemical, confirmation dose response, primary screen (AID 588689); assay type: functional
# Vero = assay: viability of Vero cells under compound – cytotoxicity control for flavivirus capping enzyme inhibitors (AID 588742); assay type: functional; conditions: Chlorocebus sabaeus
# T3 sequence (P08684 whole entry): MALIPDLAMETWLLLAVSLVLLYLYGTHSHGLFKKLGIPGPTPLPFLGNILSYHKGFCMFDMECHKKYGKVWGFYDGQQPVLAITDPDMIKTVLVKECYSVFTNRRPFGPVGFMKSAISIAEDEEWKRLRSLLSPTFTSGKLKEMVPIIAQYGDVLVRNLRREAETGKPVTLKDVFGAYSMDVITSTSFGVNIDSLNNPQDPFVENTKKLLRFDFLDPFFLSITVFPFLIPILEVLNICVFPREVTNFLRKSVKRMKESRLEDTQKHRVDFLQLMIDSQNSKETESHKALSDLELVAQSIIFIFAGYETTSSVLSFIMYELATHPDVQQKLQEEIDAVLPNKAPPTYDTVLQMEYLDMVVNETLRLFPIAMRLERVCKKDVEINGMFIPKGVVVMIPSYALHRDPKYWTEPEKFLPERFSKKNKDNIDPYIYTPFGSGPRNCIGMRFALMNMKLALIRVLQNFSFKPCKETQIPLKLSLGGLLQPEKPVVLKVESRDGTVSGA
# Glyceraldehyde-3-phosphate dehydrogenase, sequence (P04406 whole entry): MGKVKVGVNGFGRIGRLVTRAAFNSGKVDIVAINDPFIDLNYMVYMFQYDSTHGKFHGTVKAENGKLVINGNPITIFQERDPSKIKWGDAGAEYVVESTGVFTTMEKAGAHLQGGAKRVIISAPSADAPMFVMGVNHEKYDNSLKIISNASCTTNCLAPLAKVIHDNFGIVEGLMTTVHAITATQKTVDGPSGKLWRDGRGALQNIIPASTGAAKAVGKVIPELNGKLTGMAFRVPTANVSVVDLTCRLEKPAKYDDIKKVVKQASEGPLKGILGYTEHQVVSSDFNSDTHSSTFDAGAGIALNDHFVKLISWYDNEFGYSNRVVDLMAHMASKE
# Estrogen receptor beta, sequence (Q92731 whole entry): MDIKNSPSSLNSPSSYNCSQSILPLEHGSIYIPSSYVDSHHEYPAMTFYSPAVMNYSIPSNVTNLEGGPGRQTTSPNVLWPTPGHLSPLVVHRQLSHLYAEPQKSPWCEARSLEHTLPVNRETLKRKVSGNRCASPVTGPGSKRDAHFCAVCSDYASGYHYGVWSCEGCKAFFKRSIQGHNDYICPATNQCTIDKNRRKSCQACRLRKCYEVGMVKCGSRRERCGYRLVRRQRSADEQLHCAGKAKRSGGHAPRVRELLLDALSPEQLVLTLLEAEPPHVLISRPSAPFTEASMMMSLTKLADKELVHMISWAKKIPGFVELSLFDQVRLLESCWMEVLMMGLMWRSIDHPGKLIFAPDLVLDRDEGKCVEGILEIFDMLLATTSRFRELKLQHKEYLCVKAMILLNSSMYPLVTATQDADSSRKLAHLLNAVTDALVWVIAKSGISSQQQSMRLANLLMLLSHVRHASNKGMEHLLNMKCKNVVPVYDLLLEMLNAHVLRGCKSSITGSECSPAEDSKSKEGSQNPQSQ
# FAD-linked sulfhydryl oxidase ALR, sequence (P55789 whole entry): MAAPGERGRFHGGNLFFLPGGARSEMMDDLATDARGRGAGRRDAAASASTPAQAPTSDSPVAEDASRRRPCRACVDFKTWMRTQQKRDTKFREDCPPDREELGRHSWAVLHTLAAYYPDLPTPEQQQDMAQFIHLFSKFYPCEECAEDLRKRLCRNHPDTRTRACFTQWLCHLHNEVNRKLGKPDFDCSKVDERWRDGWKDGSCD
# Genome polyprotein, sequence (P29990 2492-3391 limits assumed): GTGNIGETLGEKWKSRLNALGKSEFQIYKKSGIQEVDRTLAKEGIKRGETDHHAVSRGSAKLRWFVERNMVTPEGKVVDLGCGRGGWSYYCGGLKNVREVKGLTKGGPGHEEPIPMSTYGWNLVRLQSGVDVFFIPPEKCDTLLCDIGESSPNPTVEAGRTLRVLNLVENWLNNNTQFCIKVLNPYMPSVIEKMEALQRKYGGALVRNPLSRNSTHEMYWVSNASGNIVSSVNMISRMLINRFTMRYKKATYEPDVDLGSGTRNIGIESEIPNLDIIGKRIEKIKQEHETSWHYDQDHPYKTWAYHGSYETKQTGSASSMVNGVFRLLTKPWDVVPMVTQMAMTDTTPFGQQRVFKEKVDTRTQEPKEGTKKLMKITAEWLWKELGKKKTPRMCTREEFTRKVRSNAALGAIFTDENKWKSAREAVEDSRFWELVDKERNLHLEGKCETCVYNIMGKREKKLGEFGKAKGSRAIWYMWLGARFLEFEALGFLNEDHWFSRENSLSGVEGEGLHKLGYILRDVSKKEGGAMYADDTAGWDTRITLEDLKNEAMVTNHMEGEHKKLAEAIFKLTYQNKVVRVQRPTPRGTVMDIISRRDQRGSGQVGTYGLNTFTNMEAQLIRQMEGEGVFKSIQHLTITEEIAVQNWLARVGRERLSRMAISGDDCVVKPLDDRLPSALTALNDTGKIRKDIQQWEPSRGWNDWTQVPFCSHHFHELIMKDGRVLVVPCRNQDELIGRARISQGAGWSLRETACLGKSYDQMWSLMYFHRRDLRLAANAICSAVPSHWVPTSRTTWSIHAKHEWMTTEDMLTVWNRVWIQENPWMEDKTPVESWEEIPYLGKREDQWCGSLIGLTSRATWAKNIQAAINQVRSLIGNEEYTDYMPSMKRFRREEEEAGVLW
# Large T antigen, sequence (P03070 whole entry): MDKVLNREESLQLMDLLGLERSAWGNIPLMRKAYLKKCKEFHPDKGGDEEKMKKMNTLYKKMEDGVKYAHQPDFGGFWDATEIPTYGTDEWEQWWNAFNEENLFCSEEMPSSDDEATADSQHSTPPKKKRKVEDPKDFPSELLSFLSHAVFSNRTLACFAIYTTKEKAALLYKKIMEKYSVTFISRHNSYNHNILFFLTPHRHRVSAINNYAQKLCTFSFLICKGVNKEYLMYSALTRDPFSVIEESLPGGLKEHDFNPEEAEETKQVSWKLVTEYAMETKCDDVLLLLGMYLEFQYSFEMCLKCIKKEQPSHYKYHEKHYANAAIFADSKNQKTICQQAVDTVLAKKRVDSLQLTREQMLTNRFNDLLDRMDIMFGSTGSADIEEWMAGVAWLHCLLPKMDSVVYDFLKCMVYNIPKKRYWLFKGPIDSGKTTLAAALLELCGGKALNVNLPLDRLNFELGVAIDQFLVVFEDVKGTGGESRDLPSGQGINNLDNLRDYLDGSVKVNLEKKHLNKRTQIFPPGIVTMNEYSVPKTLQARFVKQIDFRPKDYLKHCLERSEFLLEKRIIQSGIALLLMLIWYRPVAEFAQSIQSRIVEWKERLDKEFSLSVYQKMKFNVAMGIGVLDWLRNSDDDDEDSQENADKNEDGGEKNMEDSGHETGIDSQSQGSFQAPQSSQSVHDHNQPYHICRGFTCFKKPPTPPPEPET
smiles,measurement,setting,value
COC(=O)c1ccccc1-c1ccc(/C=C2\C(=O)N(c3ccccc3)N=C2c2ccccc2)o1,AC50,Cytochrome P450 1A2,5.01 µM (inconclusive)
same,IC50,[1],28.9 µM (active)
same,AC50,Cytochrome P450 3A4 [2],2.82 µM (inconclusive)
CC(=O)Nc1ccc(N2CCN(C(C)=O)CC2)cc1,IC50,Estrogen receptor beta,> 50 µM (not active)
CC1CC(C)(C)NCCNC(C)CC(C)(C)NCCN1 (centres undefined),IC50,[3],> 10 µM (inconclusive)
COC(=O)c1ccc(CC(=O)c2c(C)cc(O)cc2O)o1,IC50,Estrogen receptor beta,15 µM (active)
CCCCCc1ccc(OCCC[n+]2ccccc2)c(CCCCC)c1,IC50,[1],84.9 µM (active)
same,EC50,[4],> 60 µM (not active)
same,EC50,[5],122 nM (active)
O=C(/C=C/c1cccc(Cl)c1)c1ccc([N+](=O)[O-])o1,AC50,[6],1.28 µM (active)
same,EC50,BJ [7],9.18 µM (inconclusive)
same,AC50,INS1,2.31 µM (active)
same,EC50,Streptokinase A,3.36 µM (active)
same,EC50,Streptococcus,6.98 µM (active)
same,EC50,BJ [8],> 150 µM (inconclusive)
same,IC50,Large T antigen,40.9 µM (active)
same,EC50,[9],4.56 µM (inconclusive)
same,EC50,[10],3.18 µM (active)
same,EC50,[11],2.5 µM (inconclusive)
Oc1cc(Cl)c(Cl)c(Cl)c1Cl,AC50,[6],2.06 µM (active)
same,AC50,Cytochrome P450 3A4 [12],12.6 µM (inconclusive)
COc1ccc(S(=O)(=O)N2CCN(CC(=O)c3ccc(O)c(O)c3)CC2)cc1,AC50,[13],5.33 µM (active)
same,AC50,[14],2.33 µM (active)
CC1(C)C[C@@H]2C(=O)CCC3O[C@@]3(C)CCC21 (some centres undefined),AC50,Cytochrome P450 3A4 [12],12.6 µM (inconclusive)
NC1=NC(=O)/C(=C/c2ccc(-c3cc([N+](=O)[O-])ccc3Cl)o2)S1,IC50,[3],> 100 µM (not active)
CCCn1c(-c2ccc(F)cc2)nc2c(NCCN(CC)CC)nc(C)nc21,AC50,Cytochrome P450 3A4 [12],15.8 µM (inconclusive)
O=C1C(O)=CC(=C(c2ccccc2)c2ccccc2)c2ccccc21,IC50,Genome polyprotein,> 100 µM (active)
same,CC50,Vero,> 40 µM (active)
COC1=CC(=O)C(C(=O)c2ccccc2)=CC1=O [2-BENZOYL-5-METHOXYBENZOQUINONE],AC50,Cytochrome P450 3A4 [12],10 µM (inconclusive)
COc1cc(O)cc(OC)c1OC [ANTIAROL],AC50,Cytochrome P450 3A4 [12],31.6 µM (inconclusive)
CCCc1cc(=O)oc2c3c(c4c(c12)OC(C)(C)C=C4)O[C@H](C)[C@@H](C)[C@@H]3O [CALANOLIDE A],IC50,[1],20.3 µM (active)
same,EC50,[4],4.87 µM (active)
same,EC50,[5],2280 nM (active)
O=C(CC(=O)c1ccccc1)c1ccccc1 [DIBENZOYLMETHANE],AC50,Cytochrome P450 3A4 [12],12.6 µM (inconclusive)
